# Experimental data taken from BindingDB's records for patent US20230365541 (Haisco Pharmaceuticals, 2023).
# Target: Histone-lysine N-methyltransferase EZH2 (Homo sapiens, UniProt Q15910)
# Assay: EZH2 Enzyme Activity Assay
# Description: The compounds were dissolved in DMSO, formulated into 10 mM solutions and serially diluted with DMSO to obtain 100-fold the final concentration. 200 nL of the solutions of the compounds was transferred to a 384-well plate (Perkin Elmer, Cat. No. 6007299) by using Echo550. EZH2 (BPS, Cat. No. 51004) was diluted with 1×assay buffer (50 mM Tris-HCl 9.0, 0.01% Tween-20, 1 mM DTT) to 2-fold the final concentration (EZH2: 3 nM). A mixed solution of H3K27(21-44) and [3H]-SAM (PerkinElmer, Lot. No. 2146246) (H3K27(21-44): 200 nM, [3H]-SAM: 100 nM) was formulated. The EZH2 diluted solution was taken and added to the 384-well plate at 10 μL/well (10 μL of 1×assay buffer was added in the control group). The plate was sealed and then incubated at room temperature for 15 minutes. 10 μL of the mixed solution of H3K27 (21-44) and [3H]-SAM was added to each well. The plate was sealed and then incubated at room temperature for 60 minutes. 50 μM of SAM (Sigma, Cat. No. A7007) was formulated at low temperature and added to the 384-well plate at 10 μL/well. The sample was taken at 25 μL/well, transferred to a flashplate and incubated at room temperature for at least 1 hour. The flashplate was washed 3 times with a plate washing liquid (dH2O+0.1% Tween-20) and read by using Microbeta.
# Chain of Histone-lysine N-methyltransferase EZH2 (Q15910 whole entry): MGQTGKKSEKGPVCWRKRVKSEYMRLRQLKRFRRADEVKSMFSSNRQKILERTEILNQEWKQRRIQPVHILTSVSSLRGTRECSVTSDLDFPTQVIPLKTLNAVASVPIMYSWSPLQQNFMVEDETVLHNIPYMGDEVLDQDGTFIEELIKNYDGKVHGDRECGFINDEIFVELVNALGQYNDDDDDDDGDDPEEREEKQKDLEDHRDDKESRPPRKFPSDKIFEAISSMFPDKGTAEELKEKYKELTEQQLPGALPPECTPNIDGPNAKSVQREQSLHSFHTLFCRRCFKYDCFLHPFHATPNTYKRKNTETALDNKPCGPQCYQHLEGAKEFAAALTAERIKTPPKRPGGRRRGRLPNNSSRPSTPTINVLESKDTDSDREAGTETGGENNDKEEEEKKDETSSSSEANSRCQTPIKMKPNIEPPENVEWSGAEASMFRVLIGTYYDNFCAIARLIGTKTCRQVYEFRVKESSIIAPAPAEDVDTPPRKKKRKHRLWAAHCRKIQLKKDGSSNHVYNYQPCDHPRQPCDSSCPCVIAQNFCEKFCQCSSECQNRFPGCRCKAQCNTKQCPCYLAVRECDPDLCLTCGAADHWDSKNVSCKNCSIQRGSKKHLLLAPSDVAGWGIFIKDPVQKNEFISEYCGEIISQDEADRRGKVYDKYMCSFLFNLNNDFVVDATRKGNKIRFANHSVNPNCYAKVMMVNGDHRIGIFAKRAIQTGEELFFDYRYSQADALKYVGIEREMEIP
row,IC50,SMILES
1,430 pM,"CNC(=O)N1CCC(C2(C)Oc3c(Cl)cc(C(=O)NCc4c(SC)cc(C)[nH]c4=O)c(C)c3O2)CC1 (configuration not stated) [US20230365541, Compound 13]"
2,480 pM,"CSc1cc(C)[nH]c(=O)c1CNC(=O)c1cc(Cl)c2c(c1C)OC(C)(C1CCN(S(C)(=O)=O)CC1)O2 (configuration not stated) [US20230365541, Compound 14]"
